The results in this text go back to a melting point compilation (Tetko et al.; mined from patent text by program, amines drawn as free bases though some values may be those of a salt).

Turning to `NNc1nc2c(Cl)cccc2s1`, the melting point is 232 to 235 °C. As for `COc1ccc(C2(c3ccc(N(C)C)cc3N(C)C)OC(=O)c3cc(N(C)C)ccc32)cc1` (centres undefined), the melting point is 90 to 94 °C. On to `CC(=O)c1ccc(-n2c(-c3cc(-c4ccc(S(C)(=O)=O)cc4)c(N4CCOCC4)s3)nc3ccccc3c2=O)cc1`, for which the melting point was 239 to 242 °C.

`O=CC(c1ccccc1)c1nc(-c2ccncc2)cs1` (centres undefined) registered a melting point of 163 to 164 °C.

In the case of `CC(C)NC(Nc1cc(C(F)(F)F)cc(C(F)(F)F)c1)=C(C#N)S(=O)(=O)c1ccc(Cl)cc1`, the melting point was 197 to 198 °C. To `C=CCN1C(=O)C(O)(CC(=O)N(C)C)c2cc(CO)ccc21` (centres undefined) belongs 125 °C. The figure for `CC(=O)N(Cc1ccc(Cl)cc1Cl)c1cncnc1` is 134 to 136 °C; for `CCn1ccc2c(c1=O)CN=C(N1CCN(Cc3ccccc3)CC1)N2` it is 200 to 203 °C; for `CCOc1ccc(-n2nc(Sc3ccc(Cl)cc3)c(C)c(C#N)c2=O)cc1` it is 138 to 145 °C. Turning to `CC(=O)c1ccc(-n2c(-c3cc(-c4ccncc4)c(N4CCOCC4)s3)nc3ccccc3c2=O)cc1`, the melting point is 241 to 242 °C.

Take `CC(C)OCCOc1ccc(-c2nc(C(=O)Nc3nccs3)c(-c3ccc(Cl)cc3)[nH]2)cc1`: the melting point is 121 to 125 °C. `CCC1C(=O)N(CCCCN2CCN(c3ccccn3)CC2)c2cc(F)ccc21` (centres undefined): the melting point is 137 to 139 °C.

In turn, `CCOC(=O)CC(C)(O)c1ccc(-c2ccccc2)cc1` (centres undefined) returned a melting point of 58 to 60 °C. The figure for `Cc1ccc(S(=O)(=O)N(C)c2ccc(F)cc2[N+](=O)[O-])cc1` is 93.5 to 94.5 °C; for `Cc1ccc(O)c(C(=O)Nc2cc(Cl)cc(Cl)c2)c1` it is 216 to 217 °C. The figure for `Oc1cccnc1CC1(O)CN2CCC1CC2` (centres undefined) is 270 to 272 °C; for `CC1CC(C(=O)O)CCN1C(=O)OC(C)(C)C` (centres undefined) it is 109 to 112 °C.

Turning to `CCOc1ccc(-c2nc3c4ccccc4ccc3n2C)cc1`, the melting point lay within 138 to 139 °C. In turn, `CCC(C(C)=CC(CNC(=O)c1ccc2c(c1)CC(=O)N2)=NO)[N+](=O)[O-]` (centres undefined) gave a melting point of 111 to 114 °C. The figure for `O=P(O)(O)Cc1cc(C(F)(F)F)cc(C(F)(F)F)c1` is 206 to 208 °C; for `COC(=N)c1ccc(-c2ccc([N+](=O)[O-])cc2)o1` it is 184 to 188 °C. As to `CC(=O)NC1CCC(NC(=O)Nc2ccc(C(F)(F)F)cc2)CC1` (centres undefined), the melting point was more than 400 °C. To `Cc1cc(C)c(-c2nc(C)cc3c2ncn3Cc2ccccc2)c(C)c1` belongs 177 to 180 °C; to `O=C(NCCc1cccs1)c1ccc(-c2ccccc2)cc1`, 164 to 166 °C; to `OCc1cnn(C(c2ccccc2)(c2ccccc2)c2ccccc2)c1`, 181 to 184 °C. Consider `CCC(C)c1ccc(-n2c(-c3cc(C)c(OCCO)c(C)c3)nc3ccc(OC)cc3c2=O)cc1` (centres undefined), for which the melting point lay in the range of 152 to 154 °C. For the molecule `COc1cc(COc2nn(Cc3ccccc3)cc2C=O)ccc1OCc1nc(-c2ccccc2)oc1C`, the melting point fell in the range of 151 to 152 °C.

Molecule `CC(Cc1ccccc1)(NC(=O)OC1CCCCc2ccccc21)C(=O)NCCCCCCCCC(N)=O` (centres undefined) displayed a melting point of 98 to 100 °C.

`CC(C)(C)CC1NC(C(=O)NCC2CCC(O)CC2)C(c2cccc(Cl)c2F)C12C(=O)Nc1cc(Cl)ccc12` (centres undefined): the melting point was 192 °C. In turn, `CSCCCC(=O)C(=C1NCCCS1)[N+](=O)[O-]` yielded a melting point of 49 to 49.5 °C. To `O=C(O)CCC(=O)c1cccc(Cl)c1` belongs 105 to 107 °C. For the molecule `CN(Cc1ccco1)Cn1c(Cl)c(C#N)c(-c2cccc(Cl)c2F)c1-c1ccccc1`, the melting point lay within 63 to 64 °C. To `Cc1cc2c3c(cc(C)c2[nH]c1=O)C(C)C(C(C)N)O3` (centres undefined) belongs 195 to 207 °C. Molecule `CC(=O)NC[C@H]1CN(c2ccc(C(=O)c3cnc4cc(C)ccn34)cc2)C(=O)O1` came in with a melting point of 254 to 256 °C.

Regarding `COc1ccc(N2CCN(c3c(C)c(C)c4c(c3C)C(c3ccc(C(F)(F)F)cc3)C(C)(C)O4)CC2)cc1` (centres undefined), the melting point lay in the range of 208 to 211 °C. `C=C(C)CSc1ccccc1S(=O)(=O)NC(C)(C)C` registered a melting point of 104 to 107 °C.

Molecule `CCOC(=O)c1cccc(-c2cc3c(O)ncnc3[nH]2)c1` gave a melting point of more than 250 °C. Molecule `Cc1nc(OCCCC2CO2)cc(-c2ccc(F)cc2)n1` (centres undefined) returned a melting point of 63 to 64 °C. The molecule `O=C(c1ccc(Cl)cc1)N1CCC(=Cc2ccc(C3=NCCO3)cc2F)CC1` registered a melting point of 150 to 152 °C. To `Cn1c(CC#N)ccc1C(=O)c1cccc(Cl)c1` belongs 122 to 127 °C. To `NC(=O)c1ccc(-c2ccc3ncn(Cc4ccc5ncccc5c4)c3n2)cc1Cl` belongs 212 to 214 °C. The figure for `CCOC(=O)c1ccc(-c2ccc(-c3cccc(OC)c3)c(-c3ccc4c(c3)C(C)(C)CCC4(C)C)c2)cc1` is 116 to 118 °C; for `COc1ccc(N2CC(CSCCCSc3ccnc(CNc4nc(C)nc(C)c4Cl)c3C)OC2=O)cc1` (centres undefined) it is 161 to 164 °C. In turn, `CCCCCCCCCCCCCCCCCCOc1cc(OCc2ccccc2)cc(C(=O)OC)c1` showed a melting point of 62 to 64 °C.

`CC(=O)Nc1c(C(=O)c2ccccc2)[nH]c2cc([N+](=O)[O-])ccc12` returned a melting point of 234 to 236 °C. To `Cc1ccc(N=C=O)c(S(=O)(=O)Cl)c1` belongs 36 to 38.5 °C; to `CC(=O)c1ccc(OC(C)CCCCC(=O)O)cc1O` (centres undefined), 116 to 118 °C; to `CNS(=O)(=O)c1cc2c(c(C(=O)OC)c1)OCCO2`, 159 to 160 °C. The figure for `CC(C)Oc1ccc2c(n1)C(C(=O)c1cccs1)C(=O)N2C(N)=O` (centres undefined) is 194 to 196 °C. Regarding `CCOc1ccccc1-c1nc2cc3nc[nH]c3cc2c(=O)[nH]1`, the melting point is 194 to 196 °C.

For `CCN1C(=O)CCCc2cc(Nc3ncc(Cl)c(Nc4ccccc4S(=O)(=O)N(C)C)n3)c(OC)cc21`, the melting point fell in the range of 147 to 153 °C. For the molecule `CC(=O)N1CC(CCN2CC=C(c3ccccc3)CC2)c2cc3c(cc21)OCO3` (centres undefined), the melting point lay in the range of 90 to 91 °C.

As to `O=c1[nH]c(SCc2ccccc2)nc2c1NCN2C(c1ccccc1)(c1ccccc1)c1ccccc1`, the melting point fell in the range of 267 to 270 °C. For `Cc1cccc(-c2[nH]c(C(C)C)nc2-c2cccc(-c3ccc(S(=O)(=O)N4CCOCC4)cc3)c2)n1`, the melting point is 88 to 92 °C.

In turn, `OCC12CO[C@@H](c3ccc(C(F)(F)F)cc3)N1[C@H](c1ccc(C(F)(F)F)cc1)OC2` returned a melting point of 120 °C. To `CCOC(=O)c1cccc(-c2c(OC)cccc2C(=O)O)c1` belongs 128 to 129 °C. The figure for `CC(C)C[C@H](NC(=O)NCc1ccccc1)C(=O)N[C@@H](Cc1ccccc1)C(=O)CSCc1ccco1` is 95 to 97 °C; for `CCc1cnc(C)c(C(=O)O)c1` it is 218 to 220 °C. To `Cc1ccc(-c2c(Cl)nc(C#N)n2O)cc1` belongs 212 to 215 °C. `CCCN1N=C2C(=Cc3cccc(C(F)(F)F)c3)CSCC2C1c1cccc(C(F)(F)F)c1` (centres undefined): the melting point is 90 to 93.5 °C. `Cn1nc(Br)c(I)c1-c1ccc(F)cc1Cl`: the melting point was 139 to 141 °C. The figure for `O=C1OCc2c1oc1cccc(F)c1c2=O` is 224 to 226 °C; for `CCCCCCCCCCCCc1ccc(S(=O)(=O)Nc2nnc(CC)s2)cc1` it is 93 to 94 °C.

For `CCCc1cc(O)nc(SC)n1`, the melting point came out at 158 °C. To `C=C(C)C(=O)OCc1c(Br)c(Br)c(Br)c(COC(=O)C(=C)C)c1Br` belongs 97 to 99 °C; to `CNC(=O)[C@@H]1C[C@H](SCc2ccc(OC)cc2)CN1`, 53 to 54 °C; to `CCC1=NCC(c2cccc(O)c2)O1` (centres undefined), less than 84 °C. Regarding `COc1cc2nc3ccc(F)cc3sc-2cc1=O`, the melting point was 252 °C. To `CCCCOc1ccc(C(=O)NCCCCCCCNC(=O)c2ccc(OCCCC)cc2)cc1` belongs 151 to 152 °C; to `CNc1cc(F)ccc1-c1c(C#N)n[nH]c1-c1ccc(S(C)(=O)=O)cc1`, 192 to 193 °C. To `CC(C)C1(C)N=C(c2c(C(=O)O)ccc3ccsc23)NC1=O` (centres undefined) belongs 200 to 202 °C; to `O=C(CCl)c1ccc(Cl)c(S(=O)(=O)NC2CCCCC2)c1`, 117 °C; to `COc1ccccc1N1CCN(C[C@H]2COc3ccc4nc(C)ccc4c3O2)CC1`, 44 to 47 °C. To `O=C(O)COc1ccc2c(c1)CCc1sc(SCCC(c3ccccc3)c3ccccc3)nc1-2` belongs 138 to 140 °C; to `CC(C)(C)OC(=O)NCC#Cc1cccnc1`, 74 to 78 °C. For the molecule `Cc1cc(Cl)cc2c(-c3ccc(Cl)cc3)onc12`, the melting point was 151 to 152 °C. The molecule `COc1c(C=Cc2ccccc2)cc(C(C)(C)C)cc1C=Cc1ccccc1` came in with a melting point of 129 to 130 °C.

`O=C(O)C1CNC(C(=O)O)c2[nH]c3ccc(F)cc3c21` (centres undefined) gave a melting point of 233 to 234 °C. As for `CC[C@@H](O)C1(c2onc(-c3ccc(O)cc3)c2-c2ccccc2)CC1`, the melting point was in the range of 163 to 164 °C. With `N#Cc1cc([N+](=O)[O-])c(O)c(O)c1F`, the melting point was found to be 154 °C. To `CC(=O)c1c(C)[nH]c(C(C)c2ccccc2)c1C` (centres undefined) belongs 146 to 148 °C. Molecule `CCCCc1csc2ccc3[nH]c4c(c3c12)CNCC4` came in with a melting point of 224 to 225 °C. The figure for `Fc1ccc(Cl)c2oc(CCC#Cc3ccccn3)nc12` is 102 to 103 °C; for `CCCCCCCCOc1ccc(C(C)(C)CC(C)(C)C)cc1S(=O)(=O)NCC(C)c1nn2nc(C)c(Cl)c2[nH]1` (centres undefined) it is 135 to 137 °C; for `COc1ccc(-c2nsc3ccc([N+](=O)[O-])cc23)cc1` it is 207 °C.

The molecule `CN1CCN(C(=S)C2(c3ccccn3)CCCS2)CC1` (centres undefined) had a melting point of 124 °C.

The molecule `CCCCCS(=O)(=O)NC(=O)/C=C/c1ccc(OCCOC)cc1Oc1ncc(Cl)cc1Cl` displayed a melting point of 119 to 120 °C.

In the case of `ClCOc1nc(Cl)c(Cl)cc1Cl`, the melting point is 94 to 96 °C.

For the molecule `COC1=C(OC)C(=O)C2=C(CCC(CCOc3cccnc3)CC2)C1=O`, the melting point lay within 80 to 82 °C.

By melting point is commonly meant the temperature, or range, at which the solid turns liquid.
